Data: patent publication US10696672B2 (Pliant Therapeutics, Inc., priority 2016, dated 2020)

Biological target: recombinant human integrin αvβ6 (Homo sapiens (Human), UniProt P06756+P18564)
Assay: Solid phase integrin αvβ6 binding assay
Settings: plate-coated integrin; recombinant TGFβ1 LAP 0.67 ug/ml as ligand; 2 hours at 25° C.; read-out: αvβ6 Inhibition IC50 (nM) - range
In short: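 Plates coated with recombinant human αvβ6 (2 ug/ml); compounds and TGFβ1 LAP (0.67 ug/ml) incubated 2 h at 25° C in TBS buffer with 0.5 mM MnCl2. Bound LAP detected with biotin-anti-hLAP and peroxidase-streptavidin; IC50 from four-parameter logistic fit.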

Chain of recombinant human integrin αvβ6 (P06756 31-992): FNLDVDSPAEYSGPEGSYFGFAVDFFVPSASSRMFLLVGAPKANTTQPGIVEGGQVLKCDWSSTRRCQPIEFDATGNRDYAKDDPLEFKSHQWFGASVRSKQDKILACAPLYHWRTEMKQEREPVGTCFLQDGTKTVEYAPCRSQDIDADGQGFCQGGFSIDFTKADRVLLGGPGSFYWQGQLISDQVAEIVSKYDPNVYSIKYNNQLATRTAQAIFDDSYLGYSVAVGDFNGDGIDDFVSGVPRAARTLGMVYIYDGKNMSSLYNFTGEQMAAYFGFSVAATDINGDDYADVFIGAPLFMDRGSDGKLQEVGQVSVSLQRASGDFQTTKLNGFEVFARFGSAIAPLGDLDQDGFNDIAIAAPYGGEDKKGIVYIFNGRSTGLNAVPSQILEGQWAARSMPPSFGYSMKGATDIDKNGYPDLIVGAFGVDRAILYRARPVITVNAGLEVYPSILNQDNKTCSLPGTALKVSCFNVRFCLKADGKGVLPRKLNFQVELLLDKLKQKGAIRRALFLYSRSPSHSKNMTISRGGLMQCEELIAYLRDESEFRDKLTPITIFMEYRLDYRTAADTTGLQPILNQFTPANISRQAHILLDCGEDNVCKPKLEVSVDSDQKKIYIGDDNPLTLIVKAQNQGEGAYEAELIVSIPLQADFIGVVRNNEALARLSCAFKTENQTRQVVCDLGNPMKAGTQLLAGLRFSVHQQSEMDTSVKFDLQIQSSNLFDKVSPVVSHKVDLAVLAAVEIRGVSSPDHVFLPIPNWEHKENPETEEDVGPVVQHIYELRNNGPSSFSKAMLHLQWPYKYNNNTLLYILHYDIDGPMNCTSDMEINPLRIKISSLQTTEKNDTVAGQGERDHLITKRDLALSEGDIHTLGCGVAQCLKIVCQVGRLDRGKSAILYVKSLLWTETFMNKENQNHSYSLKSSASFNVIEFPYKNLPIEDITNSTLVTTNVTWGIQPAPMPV
Chain of recombinant human integrin αvβ6 (P18564 22-707): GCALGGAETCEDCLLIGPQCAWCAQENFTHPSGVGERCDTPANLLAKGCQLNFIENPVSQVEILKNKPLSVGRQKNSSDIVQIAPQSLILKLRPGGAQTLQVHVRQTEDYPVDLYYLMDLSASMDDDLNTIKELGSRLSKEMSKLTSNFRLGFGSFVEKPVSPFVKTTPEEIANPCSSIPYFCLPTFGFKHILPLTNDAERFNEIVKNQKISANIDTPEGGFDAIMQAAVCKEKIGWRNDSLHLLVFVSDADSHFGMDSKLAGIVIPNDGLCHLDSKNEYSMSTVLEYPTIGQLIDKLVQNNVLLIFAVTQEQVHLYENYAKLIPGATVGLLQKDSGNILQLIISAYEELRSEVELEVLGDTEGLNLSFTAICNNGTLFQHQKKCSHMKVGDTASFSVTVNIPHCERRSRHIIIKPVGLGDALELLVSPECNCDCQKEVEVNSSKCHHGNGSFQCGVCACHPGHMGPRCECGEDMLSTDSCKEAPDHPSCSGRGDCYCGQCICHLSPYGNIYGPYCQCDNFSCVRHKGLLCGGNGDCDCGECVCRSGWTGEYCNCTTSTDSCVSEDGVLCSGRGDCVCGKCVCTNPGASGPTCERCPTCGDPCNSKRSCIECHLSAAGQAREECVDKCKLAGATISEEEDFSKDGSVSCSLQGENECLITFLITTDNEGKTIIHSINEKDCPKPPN

Row | Compound | IC50 [nM]
1 | CC(C)(C(=O)N[C@@H](CCN1CC(CCc2ccc3c(n2)NCCC3)C1)C(=O)O)c1ccccc1 [Compound 136] | > 1000
2 | CC(C)(Cc1ccccc1)C(=O)N[C@@H](CCN1CC(CCc2ccc3c(n2)NCCC3)C1)C(=O)O [Compound 137] | > 1000
3 | O=C(N[C@@H](CCN1CC(CCc2ccc3c(n2)NCCC3)C1)C(=O)O)[C@H]1CCN(c2ccccn2)C1 [Compound 138] | 250 to 1000
4 | O=C(N[C@@H](CCN1CC(CCc2ccc3c(n2)NCCC3)C1)C(=O)O)c1c(Cl)cccc1Cl [Compound 139] | 250 to 1000
5 | O=C(N[C@@H](CCN1C2CCC1C(CCc1ccc3c(n1)NCCC3)C2)C(=O)O)c1cc(F)cc(C(F)(F)F)c1 (stereo partly drawn) [Compound 140] | > 1000
6 | O=C(N[C@@H](CCN1C2CCC1C(CCc1ccc3c(n1)NCCC3)C2)C(=O)O)c1cc(F)cc(C(F)(F)F)c1 (stereo partly drawn) [Compound 141] | < 50
7 | CC(C)(O)CN1CCC[C@H]1C(=O)N[C@@H](CCN1CC[C@@H](OCCc2ccc3c(n2)NCCC3)C1)C(=O)O [Compound 142] | > 1000
8 | O=C(O)[C@H](CCN1CC(CCc2ccc3c(n2)NCCC3)C1)NC(=O)[C@@H]1CCNC1Cc1ccccc1 (stereo partly drawn) [Compound 143] | > 1000
9 | CC(C)(C(=O)N[C@@H](CCN1CC(CCc2ccc3c(n2)NCCC3)C1)C(=O)O)c1cccnc1 [Compound 144] | > 1000
10 | CCC(CC)C(=O)N[C@@H](CCN1C2CCC1C(CCc1ccc3c(n1)NCCC3)C2)C(=O)O (stereo partly drawn) [Compound 145] | > 1000
11 | O=C(N[C@@H](CCN1CC[C@H](CCc2ccc3c(n2)NCCC3)C1)C(=O)O)c1c(Cl)cccc1Cl [Compound 146] | < 50
12 | O=C(N[C@H](CCN1CC[C@H](CCc2ccc3c(n2)NCCC3)C1)C(=O)O)c1c(Cl)cccc1Cl [Compound 147] | > 1000
